Assay results reported in the supplement of paper PMC10307832.

Legend:
Experiment in all cases: relative viability (nuclei count vs DMSO), 5 days (fraction); higher = more cells survive
A-427 = test system: A-427
Method in brief: (§1)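 After 5 days of treatment, lung cancer cells in 1536-well plates were fixed and stained in a single step (final 0.05% Triton X-100, 1% formaldehyde, 1 ug/ml Hoechst) and their nuclei counted on 4× images. Treatment had been applied by pin tool the day after seeding as one drug alone or as a fixed anchor-drug dose with five library-drug doses (not always all listed) in √10 steps. Relative viability is the nuclei count of treated wells divided by that of vehicle wells, and values are medians of duplicate plates.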

COR-L 105 = test system: COR-L 105
Method in brief: as §1

ChaGo-K-1 = test system: ChaGo-K-1
Method in brief: as §1

EKVX = test system: EKVX
Method in brief: as §1

EMC-BAC-2 = test system: EMC-BAC-2
Method in brief: as §1

H3255 = test system: H3255
Method in brief: as §1

HCC-366 = test system: HCC-366
Method in brief: as §1

LK-2 = test system: LK-2
Method in brief: as §1

LOU-NH91 = test system: LOU-NH91
Method in brief: as §1

NCI-H1666 = test system: NCI-H1666
Method in brief: as §1

NCI-H1734 = test system: NCI-H1734
Method in brief: as §1

NCI-H1755 = test system: NCI-H1755
Method in brief: as §1

NCI-H1792 = test system: NCI-H1792
Method in brief: as §1

NCI-H1975 = test system: NCI-H1975
Method in brief: as §1

NCI-H2170 = test system: NCI-H2170
Method in brief: as §1

NCI-H23 = test system: NCI-H23
Method in brief: as §1

NCI-H441 = test system: NCI-H441
Method in brief: as §1

NCI-H520 = test system: NCI-H520
Method in brief: as §1

NCI-H596 = test system: NCI-H596
Method in brief: as §1

PC-3 [JPC-3] = test system: PC-3 [JPC-3]
Method in brief: as §1

SK-MES-1 = test system: SK-MES-1
Method in brief: as §1

## NC(=O)Nc1cc(-c2cccc(F)c2)sc1C(=O)N[C@H]1CCCNC1 [AZD7762] + CC1(C)CCC(c2ccc(Cl)cc2)=C(CN2CCN(c3ccc(C(=O)NS(=O)(=O)c4ccc(N[C@H](CCN5CCOCC5)CSc5ccccc5)c(S(=O)(=O)C(F)(F)F)c4)cc3)CC2)C1 [Navitoclax] (partner 0.5 µM)
A-427; first compound 0.01 µM
  relative viability: 0.951
A-427; first compound 0.03162 µM
  relative viability: 0.948
A-427; first compound 0.1 µM
  relative viability: 1.08
A-427; first compound 0.3162 µM
  relative viability: 1.04
A-427; first compound 1 µM
  relative viability: 0.36
COR-L 105; first compound 0.01 µM
  relative viability: 0.694
COR-L 105; first compound 0.03162 µM
  relative viability: 0.768
COR-L 105; first compound 0.1 µM
  relative viability: 0.671
COR-L 105; first compound 0.3162 µM
  relative viability: 0.527
COR-L 105; first compound 1 µM
  relative viability: 0.463
ChaGo-K-1; first compound 0.01 µM
  relative viability: 0.934
ChaGo-K-1; first compound 0.03162 µM
  relative viability: 1
ChaGo-K-1; first compound 0.1 µM
  relative viability: 0.913
ChaGo-K-1; first compound 0.3162 µM
  relative viability: 0.813
ChaGo-K-1; first compound 1 µM
  relative viability: 0.664
EKVX; first compound 0.01 µM
  relative viability: 0.954
EKVX; first compound 0.03162 µM
  relative viability: 0.863
EKVX; first compound 0.1 µM
  relative viability: 0.918
EKVX; first compound 0.3162 µM
  relative viability: 0.596
EKVX; first compound 1 µM
  relative viability: 0.574
EMC-BAC-2; first compound 0.01 µM
  relative viability: 1.22
EMC-BAC-2; first compound 0.03162 µM
  relative viability: 1.11
EMC-BAC-2; first compound 0.1 µM
  relative viability: 1.16
EMC-BAC-2; first compound 0.3162 µM
  relative viability: 1.18
EMC-BAC-2; first compound 1 µM
  relative viability: 1.18
H3255; first compound 0.01 µM
  relative viability: 0.51
H3255; first compound 0.03162 µM
  relative viability: 0.509
H3255; first compound 0.1 µM
  relative viability: 0.526
H3255; first compound 0.3162 µM
  relative viability: 0.524
H3255; first compound 1 µM
  relative viability: 0.448
HCC-366; first compound 0.01 µM
  relative viability: 1.1
HCC-366; first compound 0.03162 µM
  relative viability: 1.09
HCC-366; first compound 0.1 µM
  relative viability: 1.06
HCC-366; first compound 0.3162 µM
  relative viability: 0.687
HCC-366; first compound 1 µM
  relative viability: 0.165
LK-2; first compound 0.01 µM
  relative viability: 0.849
LK-2; first compound 0.03162 µM
  relative viability: 0.822
LK-2; first compound 0.1 µM
  relative viability: 0.838
LK-2; first compound 0.3162 µM
  relative viability: 0.756
LK-2; first compound 1 µM
  relative viability: 0.607
LOU-NH91; first compound 0.01 µM
  relative viability: 0.753
LOU-NH91; first compound 0.03162 µM
  relative viability: 0.673
LOU-NH91; first compound 0.1 µM
  relative viability: 0.619
LOU-NH91; first compound 0.3162 µM
  relative viability: 0.562
LOU-NH91; first compound 1 µM
  relative viability: 0.4
NCI-H1666; first compound 0.01 µM
  relative viability: 1.24
NCI-H1666; first compound 0.03162 µM
  relative viability: 1.36
NCI-H1666; first compound 0.1 µM
  relative viability: 1.23
NCI-H1666; first compound 0.3162 µM
  relative viability: 0.797
NCI-H1666; first compound 1 µM
  relative viability: 0.661
NCI-H1734; first compound 0.01 µM
  relative viability: 0.995
NCI-H1734; first compound 0.03162 µM
  relative viability: 0.892
NCI-H1734; first compound 0.1 µM
  relative viability: 0.978
NCI-H1734; first compound 0.3162 µM
  relative viability: 0.891
NCI-H1734; first compound 1 µM
  relative viability: 0.606
NCI-H1755; first compound 0.01 µM
  relative viability: 1.03
NCI-H1755; first compound 0.03162 µM
  relative viability: 1.01
NCI-H1755; first compound 0.1 µM
  relative viability: 1.08
NCI-H1755; first compound 0.3162 µM
  relative viability: 1.08
NCI-H1755; first compound 1 µM
  relative viability: 0.622
NCI-H1792; first compound 0.01 µM
  relative viability: 0.677
NCI-H1792; first compound 0.03162 µM
  relative viability: 0.686
NCI-H1792; first compound 0.1 µM
  relative viability: 0.692
NCI-H1792; first compound 0.3162 µM
  relative viability: 0.565
NCI-H1792; first compound 1 µM
  relative viability: 0.72
NCI-H1975; first compound 0.01 µM
  relative viability: 1.03
NCI-H1975; first compound 0.03162 µM
  relative viability: 0.953
NCI-H1975; first compound 0.1 µM
  relative viability: 1.11
NCI-H1975; first compound 0.3162 µM
  relative viability: 0.938
NCI-H1975; first compound 1 µM
  relative viability: 0.676
NCI-H2170; first compound 0.01 µM
  relative viability: 0.62
NCI-H2170; first compound 0.03162 µM
  relative viability: 0.702
NCI-H2170; first compound 0.1 µM
  relative viability: 0.577
NCI-H2170; first compound 0.3162 µM
  relative viability: 0.653
NCI-H2170; first compound 1 µM
  relative viability: 0.584
NCI-H23; first compound 0.01 µM
  relative viability: 0.983
NCI-H23; first compound 0.03162 µM
  relative viability: 0.886
NCI-H23; first compound 0.1 µM
  relative viability: 0.905
NCI-H23; first compound 0.3162 µM
  relative viability: 0.783
NCI-H23; first compound 1 µM
  relative viability: 0.464
NCI-H441; first compound 0.01 µM
  relative viability: 0.803
NCI-H441; first compound 0.03162 µM
  relative viability: 0.684
NCI-H441; first compound 0.1 µM
  relative viability: 0.721
NCI-H441; first compound 0.3162 µM
  relative viability: 0.479
NCI-H441; first compound 1 µM
  relative viability: 1.1
NCI-H520; first compound 0.01 µM
  relative viability: 1.11
NCI-H520; first compound 0.03162 µM
  relative viability: 1.13
NCI-H520; first compound 0.1 µM
  relative viability: 1.07
NCI-H520; first compound 0.3162 µM
  relative viability: 0.595
NCI-H520; first compound 1 µM
  relative viability: 0.45
NCI-H596; first compound 0.01 µM
  relative viability: 1.14
NCI-H596; first compound 0.03162 µM
  relative viability: 0.936
NCI-H596; first compound 0.1 µM
  relative viability: 1.06
NCI-H596; first compound 0.3162 µM
  relative viability: 0.912
NCI-H596; first compound 1 µM
  relative viability: 0.698
PC-3 [JPC-3]; first compound 0.01 µM
  relative viability: 0.776
PC-3 [JPC-3]; first compound 0.03162 µM
  relative viability: 0.824
PC-3 [JPC-3]; first compound 0.1 µM
  relative viability: 0.802
PC-3 [JPC-3]; first compound 0.3162 µM
  relative viability: 0.847
PC-3 [JPC-3]; first compound 1 µM
  relative viability: 0.823
SK-MES-1; first compound 0.01 µM
  relative viability: 1.24
SK-MES-1; first compound 0.03162 µM
  relative viability: 1.38
SK-MES-1; first compound 0.1 µM
  relative viability: 1.41
SK-MES-1; first compound 0.3162 µM
  relative viability: 1.28
SK-MES-1; first compound 1 µM
  relative viability: 0.645
